Test results published in patent US20160331721A1, “COMPOSITION FOR ALLEVIATING AND PREVENTING ALZHEIMER'S DISEASE” (Sunway Biotech Co., LTD, priority 2015, published 2016).

Tests used:
[1] = test system: Aβ-induced AD (Alzheimer's disease) rats; test: Working memory test in water maze (Day 27); format: in vivo, SD rats; details: FIG. 10, compared to Aβ group
Excerpt: (§1) Therefore, above descriptions have completely introduce the fabricating way for this Alzheimer's disease alleviating and preventing composition. Next, a variety of experimental data will be presented in following paragraphs for proving the practicability of the Alzheimer's disease alleviating and preventing composition. Please refer to FIG. 4, which shoes an experiment grouping table.
(§2) Please continuously refer to FIG. 5, where a daily schedule diagram for the animal experiments are provided.

[2] = test system: Aβ-induced AD (Alzheimer's disease) rats; test: Spatial probe test in water maze (Day 26); format: in vivo, SD rats
Excerpt: as §1, §2
Next, spatial probe test is completed on Day 26. During the spatial probe test, the rest platform is removed out of the water tank. To carry out the spatial probe test, the test rat is put on the starting point 1 located in quadrant I; and then, letting the rat swim in the water tank for 90 seconds so as to record the rat's swimming route as well as the time for staying in quadrant IV. Please refer to FIG. 8, which provides swimming route records of the test rats as working the spatial navigation test.

Q: What does the source list for COc1cc2c(cc1OC)C(=O)C(CC1CCN(Cc3ccccc3)CC1)C2 (stereo not drawn) [Donepezil]?
A: escape latency, working memory test [1]: the Aβ group spend more time to find the target quadrant; swimming route in spatial probe test ([2]; FIG. 8, compared to Aβ group (non-directional swimming), rest platform removed): directly swim into the quadrant IV; time spent for searching target quadrant ([2]; FIG. 9, compared to Aβ group, target quadrant IV): the Aβ group spend more time to find the target quadrant
